Usually IC50 stands for the concentration that inhibits the measured activity by half.

Consider 35 molecules from patent US11192907B2, “Aminopeptidase A inhibitors and pharmaceutical compositions comprising the same” (QUANTUM GENOMICS, priority 2018, dated 2021).

The assay deals with T1, recombinant mouse APA (Mus musculus, UniProt P16406).
T1 sequence (P16406 1-945): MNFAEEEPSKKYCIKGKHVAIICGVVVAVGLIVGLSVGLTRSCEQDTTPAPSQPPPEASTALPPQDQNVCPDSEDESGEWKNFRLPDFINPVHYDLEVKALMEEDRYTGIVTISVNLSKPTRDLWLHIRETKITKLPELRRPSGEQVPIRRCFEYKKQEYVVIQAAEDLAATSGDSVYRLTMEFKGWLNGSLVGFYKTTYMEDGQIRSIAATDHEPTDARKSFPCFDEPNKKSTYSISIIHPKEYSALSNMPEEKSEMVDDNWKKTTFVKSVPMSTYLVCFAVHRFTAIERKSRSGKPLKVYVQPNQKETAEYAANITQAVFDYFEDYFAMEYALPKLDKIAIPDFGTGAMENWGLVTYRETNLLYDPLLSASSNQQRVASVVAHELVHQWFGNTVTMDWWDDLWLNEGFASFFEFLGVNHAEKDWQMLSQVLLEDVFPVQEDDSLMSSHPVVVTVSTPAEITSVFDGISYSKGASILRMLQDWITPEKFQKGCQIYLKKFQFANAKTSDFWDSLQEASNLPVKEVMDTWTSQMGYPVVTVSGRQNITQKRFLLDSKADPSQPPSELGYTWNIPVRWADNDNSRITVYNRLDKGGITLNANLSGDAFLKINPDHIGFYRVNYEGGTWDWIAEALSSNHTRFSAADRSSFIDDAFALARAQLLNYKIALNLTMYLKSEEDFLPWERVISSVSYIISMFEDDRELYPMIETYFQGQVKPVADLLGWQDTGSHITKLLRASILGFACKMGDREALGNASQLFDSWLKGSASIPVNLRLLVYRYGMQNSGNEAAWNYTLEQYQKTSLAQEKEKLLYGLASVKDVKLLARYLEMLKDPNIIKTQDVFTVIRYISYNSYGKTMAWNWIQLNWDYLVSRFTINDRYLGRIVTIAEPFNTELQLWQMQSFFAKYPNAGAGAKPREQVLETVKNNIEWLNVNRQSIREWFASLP
Put plainly: Measurement of APA activity in vitro (GluβNa hydrolysis, microplate). In kind it is biochemical. The following applies: 200 μM Glu-βNa, pH 7.4, 37° C., read-out: In vitro inhibition of aminopeptidase A, IC50 classification. The text has this:
In vitro, in the presence of calcium ions, APA hydrolyses a synthetic substrate α-L-glutamyl-β-naphthylamide (GluβNa) to glutamate and β-naphthylamine (βNa). A diazotation reaction in acidic medium makes it possible to reveal the β-naphthylamine by formation of a violet-coloured complex: spectrophotometric measurement then makes it possible to know the amount of complex formed and, by reference to a standard curve produced with increasing concentrations of β-naphthylamine, to deduce the enzymatic activity of the sample.
The reaction takes place at pH 7.4 in 50 mM tris-HCl buffer, in the presence of calcium (4 mM CaCl2)); recombinant mouse APA is incubated at 37° C. in the presence of the substrate (200 μM Glu-βNa) and in the presence or absence of various concentrations of the inhibitor to be tested, in a final volume of 100 μL. The reaction is stopped by adding 10 μL of 3N HCl. A standard curve of β-naphthylamine was prepared in parallel by diazotizing increasing concentrations (up to 0.2 mM) of 2-naphthylamine in 0.1 N HCl.
The following are added to each well: 25 μL of sodium nitrite (NaNO2) (mix, wait 5 minutes at room temperature), 50 μL of ammonium sulfamate (mix, wait 5 minutes at room temperature), then add 25 μL of N-(1-naphthyl) ethylenediamine dihydrochloride (mix, wait for stabilization of the violet colour for approximately 30 minutes at 37° C.).
The absorbance is then measured at 540 nm.
In the case of `NC(CCC(=O)O)P(=O)(O)Cc1ccccc1` (centres unmarked) [Example 1, 4-amino-4-[benzyl(hydroxy)phosphoryl]butanoic acid], the IC50 lay in the range of 30 to 300 nM. As for `Cc1ccccc1CP(=O)(O)C(N)CCC(=O)O` (centres unmarked) [Example 2, 4-amino-4-{hydroxy[(2-methylphenyl)methyl]phosphoryl}butanoic acid], the figure is 30 to 300 nM.

Turning to `Cc1cccc(CP(=O)(O)C(N)CCC(=O)O)c1` (centres unmarked) [Example 3, 4-amino-4-{hydroxy[(3-methylphenyl)methyl]phosphoryl}butanoic acid], the half-maximal inhibitory concentration (IC50) is 30 to 300 nM. As for `Cc1ccc(CP(=O)(O)C(N)CCC(=O)O)cc1` (centres unmarked) [Example 4, 4-amino-4-{hydroxy[(4-methylphenyl)methyl]phosphoryl}butanoic acid], the figure is 30 to 300 nM; as for `NC(CCC(=O)O)P(=O)(O)Cc1cc(C(F)(F)F)cc(C(F)(F)F)c1` (centres unmarked) [Example 5, 4-amino-4-({[3,5-bis(trifluoromethyl)phenyl]methyl}(hydroxy)phosphoryl) butanoic acid], 300 to 10000 nM. As for `NC(CCC(=O)O)P(=O)(O)Cc1ccccc1-c1ccccc1` (centres unmarked) [Example 6, 4-amino-4-[({[1,1′-biphenyl]-2-yl}methyl)(hydroxy)phosphoryl]butanoic acid], the figure is 300 to 10000 nM; as for `NC(CCC(=O)O)P(=O)(O)Cc1cccc(OC(F)(F)F)c1` (centres unmarked) [Example 7, 4-amino-4-[hydroxy({[3-(trifluoromethoxy)phenyl]methyl})phosphoryl]butanoic acid], 30 to 300 nM; as for `NC(CCC(=O)O)P(=O)(O)Cc1ccc(OC(F)(F)F)cc1` (centres unmarked) [Example 8, 4-amino-4-[hydroxy({[4-(trifluoromethoxy)phenyl]methyl})phosphoryl]butanoic acid], 30 to 300 nM.

`CS(=O)(=O)c1ccc(CP(=O)(O)C(N)CCC(=O)O)cc1` (centres unmarked) [Example 9, 4-amino-4-{hydroxy[(4-methanesulfonylphenyl)methyl]phosphoryl}butanoic acid]: the IC50 was in the range of 300 to 10000 nM. In the case of `COc1ccccc1CP(=O)(O)C(N)CCC(=O)O` (centres unmarked) [Example 10, 4-amino-4-{hydroxy[(2-methoxyphenyl)methyl]phosphoryl}butanoic acid] it was less than 30 nM; in that of `COc1cccc(CP(=O)(O)C(N)CCC(=O)O)c1` (centres unmarked) [Example 11, 4-amino-4-{hydroxy[(3-methoxyphenyl)methyl]phosphoryl}butanoic acid], less than 30 nM. As for `COc1ccc(CP(=O)(O)C(N)CCC(=O)O)cc1` (centres unmarked) [Example 12, 4-amino-4-{hydroxy[(4-methoxyphenyl)methyl]phosphoryl}butanoic acid], the figure is 30 to 300 nM. Consider `N#Cc1cccc(CP(=O)(O)C(N)CCC(=O)O)c1` (centres unmarked) [Example 13, 4-amino-4-{[(3-cyanophenyl)methyl](hydroxy)phosphoryl}butanoic acid], for which the IC50 was in the range of 30 to 300 nM. In the case of `N#Cc1ccc(CP(=O)(O)C(N)CCC(=O)O)cc1` (centres unmarked) [Example 14, 4-amino-4-{[(4-cyanophenyl)methyl](hydroxy)phosphoryl}butanoic acid] it was 30 to 300 nM; in that of `NC(CCC(=O)O)P(=O)(O)Cc1cccc2ccccc12` (centres unmarked) [Example 15, 4-amino-4-{hydroxy[(naphthalen-1-yl)methyl]phosphoryl}butanoic acid], less than 30 nM; in that of `NC(CCC(=O)O)P(=O)(O)Cc1ccccc1Oc1ccccc1` (centres unmarked) [Example 16, 4-amino-4-{hydroxy[(2-phenoxyphenyl)methyl]phosphoryl}butanoic acid], 30 to 300 nM. In the case of `NC(CCC(=O)O)P(=O)(O)Cc1cccc(Oc2ccccc2)c1` (centres unmarked) [Example 17, 4-amino-4-{hydroxy[(3-phenoxyphenyl)methyl]phosphoryl}butanoic acid] it was 30 to 300 nM.

Take `NC(CCC(=O)O)P(=O)(O)Cc1ccc(Oc2ccccc2)cc1` (centres unmarked) [Example 18, 4-amino-4-{hydroxy[(4-phenoxyphenyl)methyl]phosphoryl}butanoic acid]: the IC50 was in the range of 30 to 300 nM.

In the case of `NC(CCC(=O)O)P(=O)(O)Cc1cccc(-c2ccccc2)c1` (centres unmarked) [Example 19, 4-amino-4-[({[1,1′-biphenyl]-3-yl}methyl)(hydroxy)phosphoryl]butanoic acid], the IC50 lay within 30 to 300 nM. As for `NC(CCC(=O)O)P(=O)(O)Cc1cc(-c2ccccc2)no1` (centres unmarked) [Example 20, 4-amino-4-{hydroxy[(3-phenyl-1,2-oxazol-5-yl)methyl]phosphoryl}butanoic acid], the figure is 300 to 10000 nM; as for `NC(CCC(=O)O)P(=O)(O)Cc1cc(-c2ccccc2)on1` (centres unmarked) [Example 21, 4-amino-4-{hydroxy[(5-phenyl-1,2-oxazol-3-yl)methyl]phosphoryl}butanoic acid], 30 to 300 nM; as for `Cc1ccccc1CCP(=O)(O)C(N)CCC(=O)O` (centres unmarked) [Example 23, 4-amino-4-{hydroxy[2-(2-methylphenyl)ethyl]phosphoryl}butanoic acid], less than 30 nM. Take `Cc1cccc(CCP(=O)(O)C(N)CCC(=O)O)c1` (centres unmarked) [Example 24, 4-amino-4-{hydroxy[2-(3-methylphenyl)ethyl]phosphoryl}butanoic acid]: the IC50 is less than 30 nM. As for `Cc1ccc(CCP(=O)(O)C(N)CCC(=O)O)cc1` (centres unmarked) [Example 25, 4-amino-4-{hydroxy[2-(4-methylphenyl)ethyl]phosphoryl}butanoic acid], the figure is less than 30 nM; as for `NC(CCC(=O)O)P(=O)(O)CCc1cccc(C(F)(F)F)c1` (centres unmarked) [Example 26, 4-amino-4-[hydroxy({2-[3-(trifluoromethyl)phenyl]ethyl})phosphoryl]butanoic acid], 30 to 300 nM; as for `CC(C)(CP(=O)(O)C(N)CCC(=O)O)c1ccccc1` (centres unmarked) [Example 27, 4-amino-4-[hydroxy(2-methyl-2-phenylpropyl)phosphoryl]butanoic acid], 300 to 10000 nM. Consider `NC(CCC(=O)O)P(=O)(O)CCc1ccccc1Cl` (centres unmarked) [Example 28, 4-amino-4-{[2-(2-chlorophenyl)ethyl](hydroxy)phosphoryl}butanoic acid], for which the IC50 was less than 30 nM. In the case of `NC(CCC(=O)O)P(=O)(O)CCc1cccc(Cl)c1` (centres unmarked) [Example 29, 4-amino-4-{[2-(3-chlorophenyl)ethyl](hydroxy)phosphoryl}butanoic acid] it was 30 to 300 nM. In the case of `NC(CCC(=O)O)P(=O)(O)CCc1ccc2ccccc2c1` (centres unmarked) [Example 30, 4-amino-4-{hydroxy[2-(naphthalen-2-yl)ethyl]phosphoryl}butanoic acid] it was less than 30 nM; in that of `NC(CCC(=O)O)P(=O)(O)CCc1cccc2ccccc12` (centres unmarked) [Example 31, 4-amino-4-{hydroxy[2-(naphthalen-1-yl)ethyl]phosphoryl}butanoic acid], less than 30 nM; in that of `COc1ccccc1CCP(=O)(O)C(N)CCC(=O)O` (centres unmarked) [Example 32, 4-amino-4-{hydroxy[2-(2-methoxyphenyl)ethyl]phosphoryl}butanoic acid], less than 30 nM.

In the case of `COc1cccc(CCP(=O)(O)C(N)CCC(=O)O)c1` (centres unmarked) [Example 33, 4-amino-4-{hydroxy[2-(3-methoxyphenyl)ethyl]phosphoryl} butanoic acid], the IC50 was less than 30 nM.

Turning to `COc1ccc(CCP(=O)(O)C(N)CCC(=O)O)cc1` (centres unmarked) [Example 34, 4-amino-4-{hydroxy[2-(4-methoxyphenyl)ethyl]phosphoryl}butanoic acid], the IC50 was less than 30 nM. As for `NC(CCC(=O)O)P(=O)(O)CCc1ccccc1Oc1ccccc1` (centres unmarked) [Example 35, 4-amino-4-{hydroxy[2-(2-phenoxyphenyl)ethyl]phosphoryl}butanoic acid], the figure is less than 30 nM. As for `NC(CCC(=O)O)P(=O)(O)CCc1ccccc1OC1CCCC1` (centres unmarked) [Example 36, 4-amino-4-({2-[2-(cyclopentyloxy)phenyl]ethyl}(hydroxy)phosphoryl) butanoic acid], the figure is less than 30 nM.
